These results are taken from publication PMC2193167 (The Journal of Experimental Medicine, 2000).

The target of one test is HLA-A*0201 (Homo sapiens, UniProt P04439, D140Y/D185E/D98H/E176V/E277Q/G131W/G231S/I119V/I121R/I166T/I218V/L300P/L318F/N151K/N90K/P208A/P217A/Q86G/Q94H/R138H/R169H/T345S). Description: Class I peptide binding affinity assay.
The test system of test [1] is normal melanocytes in AAD^+tyrosinase^+ (or AAD^−) C57BL/6 mice. Particulars: mouse, in vivo.

No end group written: not given here.

As for FMDGTMSQV [FMDGTMSQV], on HLA-A*0201, the IC50 (usually the concentration needed to halve the response being measured) stood at 65 nM.
Regarding “IL-2: Proleukin (IL-2; Chiron), given alone without CTLs”, in test [1], the “vitiligo, in words” value is given as “vitiligo was not observed”.
At HLA-A*0201, `CSCC[C@H](NC(=O)[C@@H](NC(=O)CNC(=O)[C@H](CC(=O)O)NC(=O)[C@H](CCSC)NC(=O)[C@@H](N)Cc1ccc(O)cc1)[C@@H](C)O)C(=O)N[C@@H](CO)C(=O)N[C@@H](CCC(N)=O)C(=O)N[C@H](C(=O)O)C(C)C` [YMDGTMSQV] returned an IC50 of 74 nM.
